Measurements reported in EP0580968B1, “Vitamin D3 fluorinated analogs” (F. HOFFMANN-LA ROCHE AG, priority 1992, dated 1994).
pEC50: −log10 of the molar value.

Test system: HL-60 tumor cell line
Assay: HL-60 Differentiation Assay (NBT reduction)
Assay type: cell-based
Settings: 4 days incubation; for % Differentiated cells: NBT/TPA
Method: HL-60 Differentiation Assay:
The HL-60 tumor cell line was originally derived from a patient with promyelocytic leukemia. The cells are maintained in suspension and diluted to 200,000 cells/ml in 5 ml of suspension media. Compounds were tested at four concentrations in duplicate flasks. Control flasks were supplemented with vehicle alone at the highest concentration such as 0.1% ethanol. Flasks are incubated upright for 4 days in 5% CO2 at 37°C. On day 4, a 1 ml aliquot of cells was centrifuged, the media removed and the cells resuspended in a 0.2 ml of solution of nitroblue tetrazolium/phorbol 12 myristate 13-acetate (NBT/TPA). The cells are suspended and incubated at 37°C for 30 min. prior to transferring to ice. An aliquot is removed and a total of 200 cells is counted using a hemocytometer. Cells without pigmented granules are judged to be undifferentiated while those containing blue black formazan (indicating conversion of NBT) granules were scored as differentiated. Results are expressed as percent differentiated cells by calculating the ratio of the number of dark cells per total number of cells counted.

pEC50 (Homo sapiens, 96 h, HL-60 differentiation, read-out: ED50 (the source's name)): 9.10
Compound: CC(CC#CC(O)(C(F)(F)F)C(F)(F)F)C1=CCC2C(=CC=C3CC(O)CC(O)C3)CCCC12C (stereo not shown) [Compound D, 1,25-dihydroxy-16-ene-23-yne-26,27-hexafluoro-19-nor-cholecalciferol]
% Differentiated cells (concentration 10^-8 (unit not given)): 89.5% | % Differentiated cells (concentration 10^-9 (unit not given)): 56.5% | % Differentiated cells (concentration 10^-10 (unit not given)): 1.5%
